Source: PMC11705955, “Lack of activity of HIV-1 integrase strand-transfer inhibitors on recombinase activating gene (RAG) activity at clinically relevant concentrations” (Microbiology Spectrum, 2024)
Read-outs that look alike come from different tables or passages of the source.

What was measured:
[1] = 5-day cytotoxicity assay with Cell Titer Glo readout, Expi293F; type: cell-based; conditions: human
Source text: Supplemental Table S2. CC50 values for INSTIs in 5- day cytotoxicity as says with Cell Titer
Expi293F GALPC3 GALHEP HUH7 MRC5 MT4 PBMC PBMC
Kidney Prostate Hepatoma Hepatoma Lung T-cell line Primary Primary
(embryonic) cancer cell cell line cell line fibroblast cells

[2] = target: T1, recombinant human core RAG1 (AA387-1011)/core RAG2 (AA1-387) in the presence of HMGB1 (Homo sapiens, UniProt P15918+P55895); experiment: Biochemical RAG DNA cleavage assay (gel-based, dsDNA 12RSS/23RSS substrate); conditions: for IC50: 25 nM RAG1-RAG2, 575 nM HMGB1, 10 nM dsDNA, 5 mM MgCl2, 1 h 37°C, no serum; for Inhibitory activity against RAG1/RAG2 cleavage: clinically relevant / supratherapeutic concentrations
T1 construct: made in house; host or cells: RAG1/RAG2 co-expressed in Expi293F GnTI human cells; HMGB1 in E. coli BL21DE3
T1 sequence (P15918 387-1011): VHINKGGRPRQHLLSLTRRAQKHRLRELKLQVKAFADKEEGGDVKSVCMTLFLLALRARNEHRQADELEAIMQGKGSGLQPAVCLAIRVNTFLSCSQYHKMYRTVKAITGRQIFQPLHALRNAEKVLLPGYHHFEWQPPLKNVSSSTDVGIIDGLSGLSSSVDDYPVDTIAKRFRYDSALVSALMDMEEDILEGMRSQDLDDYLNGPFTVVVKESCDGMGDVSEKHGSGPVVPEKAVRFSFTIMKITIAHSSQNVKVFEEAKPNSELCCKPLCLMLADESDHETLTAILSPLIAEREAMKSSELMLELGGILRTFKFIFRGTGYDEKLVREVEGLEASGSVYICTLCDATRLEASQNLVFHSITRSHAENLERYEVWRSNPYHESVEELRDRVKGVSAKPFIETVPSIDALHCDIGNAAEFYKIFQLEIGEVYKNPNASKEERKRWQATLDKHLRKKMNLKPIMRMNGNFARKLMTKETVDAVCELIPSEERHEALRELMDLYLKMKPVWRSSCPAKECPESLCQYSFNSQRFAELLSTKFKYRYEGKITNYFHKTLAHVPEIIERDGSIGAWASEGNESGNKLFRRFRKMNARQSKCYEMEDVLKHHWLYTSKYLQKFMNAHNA
T1 sequence (P55895 1-387): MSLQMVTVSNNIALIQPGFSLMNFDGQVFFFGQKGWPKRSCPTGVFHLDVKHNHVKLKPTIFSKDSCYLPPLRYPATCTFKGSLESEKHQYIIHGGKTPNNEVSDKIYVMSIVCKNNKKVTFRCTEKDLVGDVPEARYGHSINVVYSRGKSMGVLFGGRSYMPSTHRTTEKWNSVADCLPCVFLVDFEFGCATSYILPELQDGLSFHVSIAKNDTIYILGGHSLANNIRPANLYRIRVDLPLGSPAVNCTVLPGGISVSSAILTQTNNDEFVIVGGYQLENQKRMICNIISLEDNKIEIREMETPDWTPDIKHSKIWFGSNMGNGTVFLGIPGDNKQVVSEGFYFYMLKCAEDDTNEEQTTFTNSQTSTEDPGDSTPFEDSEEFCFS
Source text: To directly observe the potential inhibition of RAG1/RAG2, we measured the effect of INSTIs on DNA cleavage by RAG1/RAG2 in the presence of HMGB1. This biochemical system utilizes pre-assembled recombinant human core RAG1 (AA387-1011)/core RAG2 (AA1-387) in the presence of excess truncated HMGB1 (AA1-163) and a linear dsDNA RSS substrate, using gel electrophoresis and a fluorescent dye to monitor cleavage products (Fig. 2A) ([24]). The dsDNA RSS substrate, containing both the 12RSS and 23RSS, was designed to have the different cleavage products resolved via gel electrophoresis. RAG1/RAG2 can singly cleave either the 12RSS or the 23RSS, or both, leading to potentially five different products in the reaction (Fig. 2B). HMGB1 orients RAG1/RAG2 for proper binding to the RSS substrate ([16]). We quantified the activity of RAG as the percentage of substrate conversion to a specific cleaved product, as separated by agarose gel electrophoresis and determined by the DNA-binding fluorescent dye. With the 569-bp substrate, a single cleavage of the 12RSS results in a 492-bp dsDNA and a 77-bp hairpin. Cleavage of the 23RSS alone produces a 433-bp dsDNA and a 136-bp hairpin. Successful cleavage of both RSSs results in a 356-bp dsDNA and both of the 77- and 136-bp hairpins. For the RAG activity analysis, we measured the amount of double cleaved product (356 bp) in relation to the amount of substrate (569 bp) at the end of the reaction. The optimal concentrations of RAG1/RAG2, HMGB1, and MgCl2 were determined through titration (Fig. S2). Because there is no direct RAG1/RAG2 inhibitor previously characterized, we used suramin, a polyanionic compound commonly used as a non-specific inhibitor for DNA/RNA binding or processing proteins as a control for inhibition ([25], [26]).
Prior to the cleavage assay, compounds at the designated concentrations were spotted into 96-well plates using the Tecan Digital D300e (Tecan, Mannedorf, Switzerland). RAG1/RAG2 was incubated with HMGB1 and MgCl2 on ice for at least 15 min in a reaction buffer (25-mM 3-(N-morpholino)propanesulfonic acid [MOPS], pH 7.0, 50-mM KCl, and 2-mM DTT). After the initial incubation, the enzyme solution was added to the compound plates and incubated for an additional 15 min at room temperature. dsDNA substrate in reaction buffer was added to the plates to initiate the reaction. The final conditions of the reaction are 25-nM RAG1–RAG2 complex, 575-nM HMGB1, 10-nM dsDNA substrate, and 5-mM MgCl2. After 1 h at 37°C, reactions were quenched by the addition of final concentrations of 0.19% SDS, 45.5-µg/mL Proteinase K, and 60-mM EDTA.
Glycerol was added to a final concentration of 7.6% in each sample, and samples were loaded onto non-denaturing 6% Tris–borate–EDTA (TBE) gels in 1× TBE buffer. The samples were run at 100 V for 1.5 h, and gels were stained with 1× SYBR Gold in 1× TBE for 20 min. The stained gels were imaged with an Amersham Typhoon Biomolecular Imager.
The gel images were analyzed using ImageQuant software (Cytiva). The densities of the 569-bp-length substrate and fully cleaved 356-bp-length product were quantified. The product density was divided by the sum of substrate and product bands to obtain a percent product value. These calculated values were subtracted from a negative control (pre-quenched reaction where EDTA was added before reaction was initiated) and then normalized to the DMSO-treated control. The normalized data were plotted against concentration using GraphPad Prism (version 9.3; GraphPad Software, San Diego, CA, USA).

| Compound | CC50 at 5 day [1] [µM] | IC50 [2] [µM] | Inhibitory activity against RAG1/RAG2 cleavage [2] | CC50 at 5 day ([1]; Expi293F, 5-day, Cell Titer Glo, read-out: CC50) [µM] |
| --- | --- | --- | --- | --- |
| COc1cc2c(cc1Cc1cccc(Cl)c1F)c(=O)c(C(=O)O)cn2[C@H](CO)C(C)C [EVG, elvitegravir] | 32.5 | > 0.5 | do not show inhibitory activity | – |
| Cc1nnc(C(=O)NC(C)(C)c2nc(C(=O)NCc3ccc(F)cc3)c(O)c(=O)n2C)o1 [RAL, raltegravir] | – | > 10 | do not show inhibitory activity | > 100 |
| C[C@@H]1CCO[C@H]2Cn3cc(C(=O)NCc4ccc(F)cc4F)c(=O)c(O)c3C(=O)N12 [DTG, dolutegravir] | 53.6 | > 0.5 | – | – |
| C[C@H]1CO[C@@H]2Cn3cc(C(=O)NCc4ccc(F)cc4F)c(=O)c(O)c3C(=O)N12 [CAB, cabotegravir] | > 100 | > 0.5 | do not show inhibitory activity | – |
| O=C(NCc1c(F)cc(F)cc1F)c1cn2c(c(O)c1=O)C(=O)N1[C@H]3CC[C@H](C3)O[C@@H]1C2 [BIC, bictegravir] | 46 | > 0.5 | do not show inhibitory activity | – |
| O=C(/C=C(\O)c1nnn[nH]1)c1c[nH]c2ccc(Cl)cc12 [p8, 5-CITEP] | > 100 | 58.2 ± 5.6 | – | – |
